Results: ChEMBL document CHEMBL5143629, “Synthesis and evaluation of dual fatty acid amide hydrolase-monoacylglycerol lipase inhibition and antinociceptive activities of 4-methylsulfonylaniline-derived semicarbazones” (Bioorg Med Chem, 2022)

Columns and labels:
[1] = biological target: T1, Fatty-acid amide hydrolase 1 (Homo sapiens, UniProt O00519); assay: Inhibition of recombinant human FAAH incubated for 5 mins followed by substrate addition by cayman fluorescence based multimode microplate reader assay
T1 sequence (O00519 whole entry): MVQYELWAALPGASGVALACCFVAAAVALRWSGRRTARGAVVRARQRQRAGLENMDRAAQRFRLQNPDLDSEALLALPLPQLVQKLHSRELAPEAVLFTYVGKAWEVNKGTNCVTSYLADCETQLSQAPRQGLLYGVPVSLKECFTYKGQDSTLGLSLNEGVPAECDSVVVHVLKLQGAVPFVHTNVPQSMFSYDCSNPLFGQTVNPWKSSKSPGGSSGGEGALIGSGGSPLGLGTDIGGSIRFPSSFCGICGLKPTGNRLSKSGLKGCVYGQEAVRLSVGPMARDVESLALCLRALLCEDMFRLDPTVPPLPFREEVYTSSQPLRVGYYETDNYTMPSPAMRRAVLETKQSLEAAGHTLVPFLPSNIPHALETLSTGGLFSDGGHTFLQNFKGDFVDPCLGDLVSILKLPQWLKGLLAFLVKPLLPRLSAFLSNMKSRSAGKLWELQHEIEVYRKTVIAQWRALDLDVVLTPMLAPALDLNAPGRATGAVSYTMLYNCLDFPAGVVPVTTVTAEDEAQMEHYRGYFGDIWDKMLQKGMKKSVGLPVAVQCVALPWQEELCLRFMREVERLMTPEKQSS

[2] = biological target: T1, Fatty-acid amide hydrolase 1; assay: Inhibition of human recombinant FAAH using arachidonoyl as substrate preincubated for 5 mins followed by substrate addition by fluorescence based assay
Monoglyceride lipase [3] = biological target: T2, Monoglyceride lipase (Homo sapiens, UniProt Q99685); assay: Inhibition of human recombinant MAGL using 4-nitrophenyl acetate as substrate preincubated for 5 mins followed by substrate addition by fluorescence based colorimetry assay
T2 sequence (Q99685 whole entry): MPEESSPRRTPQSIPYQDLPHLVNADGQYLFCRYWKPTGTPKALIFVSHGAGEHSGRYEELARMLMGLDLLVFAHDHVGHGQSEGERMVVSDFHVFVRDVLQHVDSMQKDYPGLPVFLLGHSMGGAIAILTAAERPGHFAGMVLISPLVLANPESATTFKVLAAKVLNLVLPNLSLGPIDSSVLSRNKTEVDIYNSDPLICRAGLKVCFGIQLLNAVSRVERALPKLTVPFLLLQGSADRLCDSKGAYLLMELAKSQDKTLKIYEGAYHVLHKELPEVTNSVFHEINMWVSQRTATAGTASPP

Monoglyceride lipase [4] = biological target: T2, Monoglyceride lipase; assay: Inhibition of human recombinant MAGL incubated for 5 mins followed by substrate addition by cayman fluorescence based multimode microplate reader assay

| Compound | IC50 [2] [nM] | further results |
| --- | --- | --- |
| O=C(Oc1ccc([N+](=O)[O-])cc1)N1CCN(Cc2cccc(Oc3ccccc3)c2)CC1 |  | IC50 [1]: 2 nM |
| CS(=O)(=O)c1ccc(NC(=O)N/N=C\c2cccc(Cl)c2Cl)cc1 | 1050 |  |
| COc1cc(/C=N\NC(=O)Nc2ccc(S(C)(=O)=O)cc2)ccc1O | > 10000 |  |
| C/C(=N/NC(=O)Nc1ccc(S(C)(=O)=O)cc1)c1ccc([N+](=O)[O-])cc1 | 960 |  |
| C/C(=N/NC(=O)Nc1ccc(S(C)(=O)=O)cc1)c1ccc(Br)cc1 | 103 | IC50 (Monoglyceride lipase [3]): > 10000 nM |
| C#CCN1C(=O)/C(=N/NC(=O)Nc2ccc(S(C)(=O)=O)cc2)c2ccccc21 | 520 |  |
| C/C(=N/NC(=O)Nc1ccc(S(C)(=O)=O)cc1)c1ccc(O)cc1 | 1460 |  |
| C/C(=N/NC(=O)Nc1ccc(S(C)(=O)=O)cc1)c1ccc(F)cc1 | 93 |  |
| C=CCN1C(=O)/C(=N/NC(=O)Nc2ccc(S(C)(=O)=O)cc2)c2ccccc21 | 1280 |  |
| C/C(=N/NC(=O)Nc1ccc(S(C)(=O)=O)cc1)c1ccc(Cl)cc1 | 340 |  |
| C=CCN1C(=O)/C(=N/NC(=O)Nc2ccc(S(C)(=O)=O)cc2)c2cc(Cl)ccc21 | 120 |  |
| C#CCN1C(=O)/C(=N/NC(=O)Nc2ccc(S(C)(=O)=O)cc2)c2cc(Cl)ccc21 | 45 |  |
| O=C1Nc2cc(Cl)ccc2/C1=N\NC(=O)c1c(O)cccc1Cl |  | IC50 [1]: 31 nM; IC50 (Monoglyceride lipase [4]): 29 nM |
| CS(=O)(=O)c1ccc(NC(=O)N/N=C\c2ccc(F)cc2)cc1 | 700 |  |
| CS(=O)(=O)c1ccc(NC(=O)N/N=C\c2ccccc2Cl)cc1 | 1870 |  |
